Source: patent US8067424B2, “Selective inhibitors for cyclin-dependent kinases” (Emory University, priority 2007, dated 2011)
Where two headings read alike, the source gives them in different places.

Key:
AURORA C = AURORA C (Homo sapiens, UniProt Q9UQB9); test: Kinase screen: Aurora C assay; assay type: biochemical; conditions: read-out: Mean Remaining Enzyme Activity (%)
Method: (§1) Generally, the same procedure was used for all assays. Since the total assay volume was 25.5 microliters, 0.5 microliters of inhibitors at 51× assay concentration were added to the plates before any other addition.
(§2) The basic procedure was to add 0.5 microliters inhibitor/control in DMSO to plate. Fifteen microliters of enzyme/substrate/buffer mix were added and incubated for 5 min. Ten microliters MgATP at the relevant concentration were added and incubated for 30 min. The assay was stopped by adding 5 microliters of 3% orthophosphoric acid. The assay was transferred to a p81 filter plate and read in a scintillation counter of 30 sec/well. Note that this assay procedure was not followed for MKK1, which instead involved a two-step assay, and PKC alpha, which required the addition of lipid vesicles.
(§3) Aurora C assay: Aurora C (5-20 mU diluted in 50 mM Tris pH 7.5, 0.1 mM EGTA, 0.1% b-mercaptoethanol, 1 mg/ml BSA) was assayed against a substrate peptide ([…]) (SEQ ID NO: 26) in a final volume of 25.5 μl containing 50 mM Tris pH 7.5, 0.05% b-mercaptoethanol, 300 μM substrate peptide, 10 mM magnesium acetate and 0.005 mM [33P-g-ATP] (50-1000 cpm/pmole) and incubated for 30 min at room temperature. Assays were stopped by addition of 5 μl of 0.5 M (3%) orthophosphoric acid and then harvested onto P81 Unifilter plates with a wash buffer of 50 mM orthophosphoric acid.

AURORA B = AURORA B (Homo sapiens, UniProt Q96GD4); test: Kinase screen: Aurora B assay; assay type: biochemical; conditions: read-out: Mean Remaining Enzyme Activity (%)
Sequence of AURORA B (Q96GD4 whole entry): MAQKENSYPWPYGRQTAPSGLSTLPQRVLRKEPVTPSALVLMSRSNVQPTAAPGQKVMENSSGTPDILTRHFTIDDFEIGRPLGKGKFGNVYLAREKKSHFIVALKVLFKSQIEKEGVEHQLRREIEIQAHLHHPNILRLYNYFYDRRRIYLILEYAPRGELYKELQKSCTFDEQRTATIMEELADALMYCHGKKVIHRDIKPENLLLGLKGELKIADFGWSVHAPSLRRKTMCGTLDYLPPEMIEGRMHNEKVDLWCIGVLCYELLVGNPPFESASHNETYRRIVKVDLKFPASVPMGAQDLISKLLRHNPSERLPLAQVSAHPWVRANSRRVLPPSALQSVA
Method: as §1, §2
as §3, with “Aurora B” for “Aurora C”, “[…]” for “25.5 μl”, “and 0.02” for “and 0.005”

EKVX = conditions: for Mean Optical Densities / Percent Growth: EKVX
MALME-3M = test: cells; conditions: Homo sapiens
HL-60(TB) = conditions: for Mean Optical Densities / Percent Growth: HL-60(TB)
SK-MEL-5 = test: cells; conditions: Homo sapiens
SN12C = conditions: for Mean Optical Densities / Percent Growth: SN12C
A549/ATCC = conditions: for Mean Optical Densities / Percent Growth: A549/ATCC
CAKI-1 = test: cells; conditions: Homo sapiens
[1] = HOP-62, log10 concentration −4.0
[2] = HOP-62, log10 concentration −5.0
[3] = HOP-62, log10 concentration −6.0
[4] = HOP-62, log10 concentration −7.0
[5] = HOP-62, log10 concentration −8.0
[6] = NCI-H23, log10 concentration −4.0
[7] = NCI-H23, log10 concentration −5.0
[8] = NCI-H23, log10 concentration −6.0
[9] = NCI-H23, log10 concentration −7.0
[10] = NCI-H23, log10 concentration −8.0

Sequence of AURORA C (Q9UQB9 whole entry): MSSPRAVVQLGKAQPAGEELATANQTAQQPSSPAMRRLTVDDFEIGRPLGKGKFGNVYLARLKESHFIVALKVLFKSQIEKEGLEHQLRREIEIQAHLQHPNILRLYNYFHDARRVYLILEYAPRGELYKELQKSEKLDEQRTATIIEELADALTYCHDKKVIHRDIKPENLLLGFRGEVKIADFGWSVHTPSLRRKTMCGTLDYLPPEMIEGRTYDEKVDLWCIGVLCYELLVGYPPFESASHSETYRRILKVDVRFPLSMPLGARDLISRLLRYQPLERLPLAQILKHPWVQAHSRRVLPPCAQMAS

CC(C)c1cnn2c(NCc3ccccc3)cc(NCCCCCCCN)nc12 [BS-181]
remaining activity at 10 µM (AURORA C): 98% | remaining activity at 10 µM (AURORA B): 95%

CC(C)c1cnn2c(NCc3ccccc3)cc(N[C@@H](CO)[C@H](O)CO)nc12 [ICEC0318, (3S)-3-(7-(Benzylamino)-3-isopropylpyrazolo[1,5-a]pyrimidin-5-ylamino)butane-1,2,4-triol]
TGI (HT29; HT29 (Colon Cancer)): 3.66E−5 | Mean Optical Densities (HT29; HT29, log10 concentration −4.0): 0.190 | Percent Growth (HT29; HT29, log10 concentration −4.0): −2% | Mean Optical Densities (HT29; HT29, log10 concentration −5.0): 0.216 | Percent Growth (HT29; HT29, log10 concentration −5.0): 2% | Mean Optical Densities (HT29; HT29, log10 concentration −6.0): 0.247 | Percent Growth (HT29; HT29, log10 concentration −6.0): 5% | Mean Optical Densities (HT29; HT29, log10 concentration −7.0): 1.345 | Percent Growth (HT29; HT29, log10 concentration −7.0): 100% | Mean Optical Densities (HT29; HT29, log10 concentration −8.0): 1.394 | Percent Growth (HT29; HT29, log10 concentration −8.0): 105% | TGI (EKVX; EKVX (Non-Small Cell Lung Cancer)): >1.00E−4 | Mean Optical Densities (EKVX; log10 concentration −4.0): 0.740 | Percent Growth (EKVX; log10 concentration −4.0): 4% | Mean Optical Densities (EKVX; log10 concentration −5.0): 0.817 | Percent Growth (EKVX; log10 concentration −5.0): 9% | Mean Optical Densities (EKVX; log10 concentration −6.0): 0.841 | Percent Growth (EKVX; log10 concentration −6.0): 11% | Mean Optical Densities (EKVX; log10 concentration −7.0): 1.830 | Percent Growth (EKVX; log10 concentration −7.0): 83% | Mean Optical Densities (EKVX; log10 concentration −8.0): 2.035 | Percent Growth (EKVX; log10 concentration −8.0): 98% | GI50 (MALME-3M): 404 nM | CC50 (MALME-3M; read-out: LC50): > 100000 nM | TGI (HL-60(TB); HL-60(TB) (Leukemia)): 6.07E−7 | Mean Optical Densities (HL-60(TB); log10 concentration −4.0): 0.495 | Percent Growth (HL-60(TB); log10 concentration −4.0): −2% | Mean Optical Densities (HL-60(TB); log10 concentration −5.0): 0.484 | Percent Growth (HL-60(TB); log10 concentration −5.0): −4% | Mean Optical Densities (HL-60(TB); log10 concentration −6.0): 0.407 | Percent Growth (HL-60(TB); log10 concentration −6.0): −19% | Mean Optical Densities (HL-60(TB); log10 concentration −7.0): 0.932 | Percent Growth (HL-60(TB); log10 concentration −7.0): 69% | Mean Optical Densities (HL-60(TB); log10 concentration −8.0): 1.084 | Percent Growth (HL-60(TB); log10 concentration −8.0): 94% | GI50 (SK-MEL-5; SK-MEL-5): 192 nM | CC50 (SK-MEL-5; SK-MEL-5, read-out: LC50): 5980 nM | TGI (HOP-62; HOP-62 (Non-Small Cell Lung Cancer)): 7.68E−7 | Mean Optical Densities (HOP-62; [1]): 0.336 | Percent Growth (HOP-62; [1]): −28% | Mean Optical Densities (HOP-62; [2]): 0.393 | Percent Growth (HOP-62; [2]): −15% | Mean Optical Densities (HOP-62; [3]): 0.412 | Percent Growth (HOP-62; [3]): −12% | Mean Optical Densities (HOP-62; [4]): 1.165 | Percent Growth (HOP-62; [4]): 89% | Mean Optical Densities (HOP-62; [5]): 1.312 | Percent Growth (HOP-62; [5]): 107% | TGI (SN12C; SN12C (Renal Cancer)): >1.00E−4 | Mean Optical Densities (SN12C; log10 concentration −4.0): 0.531 | Percent Growth (SN12C; log10 concentration −4.0): 11% | Mean Optical Densities (SN12C; log10 concentration −5.0): 0.578 | Percent Growth (SN12C; log10 concentration −5.0): 14% | Mean Optical Densities (SN12C; log10 concentration −6.0): 0.620 | Percent Growth (SN12C; log10 concentration −6.0): 18% | Mean Optical Densities (SN12C; log10 concentration −7.0): 1.515 | Percent Growth (SN12C; log10 concentration −7.0): 84% | Mean Optical Densities (SN12C; log10 concentration −8.0): 1.702 | Percent Growth (SN12C; log10 concentration −8.0): 98% | TGI (A549/ATCC; A549/ATCC (Non-Small Cell Lung Cancer)): >1.00E−4 | Mean Optical Densities (A549/ATCC; log10 concentration −4.0): 0.346 | Percent Growth (A549/ATCC; log10 concentration −4.0): 4% | Mean Optical Densities (A549/ATCC; log10 concentration −5.0): 0.417 | Percent Growth (A549/ATCC; log10 concentration −5.0): 10% | Mean Optical Densities (A549/ATCC; log10 concentration −6.0): 0.422 | Percent Growth (A549/ATCC; log10 concentration −6.0): 11% | Mean Optical Densities (A549/ATCC; log10 concentration −7.0): 1.369 | Percent Growth (A549/ATCC; log10 concentration −7.0): 94% | Mean Optical Densities (A549/ATCC; log10 concentration −8.0): 1.447 | Percent Growth (A549/ATCC; log10 concentration −8.0): 101% | TGI (NCI-H23; NCI-H23 (Non-Small Cell Lung Cancer)): >1.00E−4 | Mean Optical Densities (NCI-H23; [6]): 0.562 | Percent Growth (NCI-H23; [6]): 1% | Mean Optical Densities (NCI-H23; [7]): 0.563 | Percent Growth (NCI-H23; [7]): 1% | Mean Optical Densities (NCI-H23; [8]): 0.633 | Percent Growth (NCI-H23; [8]): 6% | Mean Optical Densities (NCI-H23; [9]): 1.639 | Percent Growth (NCI-H23; [9]): 81% | Mean Optical Densities (NCI-H23; [10]): 1.802 | Percent Growth (NCI-H23; [10]): 93% | GI50 (CAKI-1; CAKI-1): 249 nM | CC50 (CAKI-1; CAKI-1, read-out: LC50): > 100000 nM
